Results on one molecule are retold here after ChEMBL document CHEMBL1150749, “Novel Cleistanthane Diterpenoids from Pogostemon auricularis” (1988).

What all share (format): functional
Common to all, as to settings: Cavia porcellus

Test [1] deals with Ileum. Briefly: Inhibition of spasmogen response in guinea pig ileum at 10 ug/mL.
Test [2] concerns Ileum. The experiment in a line: Inhibition of spasmogen response in guinea pig ileum at 5 ug/mL.
For test [3], the system named is Ileum. Briefly: Inhibition of spasmogen response in guinea pig ileum at 2.5 ug/mL.

For `C=C[C@H]1C(=C)CC[C@H]2[C@H]1[C@@H](OC(C)=O)C[C@@H]1[C@]2(C)CCC[C@@]1(C)C(=O)O`, the inhibition (commonly the share of the control response that was lost under treatment) at 10 µg/mL in the test with Ileum [1] was 69%. This molecule yielded an inhibition at 5 µg/mL in the test with Ileum [2] of 19%. This molecule displayed an inhibition at 2.5 µg/mL in the test with Ileum [3] of 10%.
